# Measured values from ChEMBL document CHEMBL5532743, “Discovery of a Pentapeptide Antagonist to Human Neuromedin U Receptor 1” (ACS Med Chem Lett, 2024).
# Active and inactive are the calls of the source. The calls are words filed in the database; no cut-off is given here. Non-standard residues stand in square brackets, D forms with d. Residues, ends and D or L forms follow the SMILES beside them. *: point of attachment. NMeW = CN[C@@H](Cc1c[nH]c2ccccc12)C(=O)O; Phe(4-F) = N[C@@H](Cc1ccc(F)cc1)C(=O)O; NMeY = CN[C@@H](Cc1ccc(O)cc1)C(=O)O; Acetyl(2-thienyl) = O=C(Cc1cccs1)*; NMeF = CN[C@@H](Cc1ccccc1)C(=O)O; hArg = N=C(N)NCCCC[C@H](N)C(=O)O; αMeF = C[C@](N)(Cc1ccccc1)C(=O)O; Tic = O=C(O)[C@@H]1Cc2ccccc2CN1; NMeN = CN[C@@H](CC(N)=O)C(=O)O; NMeL = CN[C@@H](CC(C)C)C(=O)O; Pip = O=C(O)[C@@H]1CCCCN1
# How the values were obtained:
# [1] = molecular target: T1, Neuromedin-U receptor 1 (Homo sapiens) (UniProt Q9HB89); experiment: Antagonist activity at human NMUR1 stably expressed in CHO cells by Fluo-4 AM dye based calcium mobilization assay; format: functional, cell-based; conditions: dose 30-300 nM
# T1 sequence (whole entry): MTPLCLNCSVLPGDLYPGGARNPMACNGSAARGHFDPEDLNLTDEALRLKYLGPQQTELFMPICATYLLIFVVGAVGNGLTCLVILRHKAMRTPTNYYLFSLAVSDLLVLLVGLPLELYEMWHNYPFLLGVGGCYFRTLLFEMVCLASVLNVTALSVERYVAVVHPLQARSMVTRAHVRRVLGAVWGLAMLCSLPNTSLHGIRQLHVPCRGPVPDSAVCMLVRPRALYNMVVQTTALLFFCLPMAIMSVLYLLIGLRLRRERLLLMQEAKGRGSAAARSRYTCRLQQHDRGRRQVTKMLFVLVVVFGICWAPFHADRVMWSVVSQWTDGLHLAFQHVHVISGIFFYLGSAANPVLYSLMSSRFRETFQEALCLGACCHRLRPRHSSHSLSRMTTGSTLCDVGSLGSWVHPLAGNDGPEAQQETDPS
# [2] = molecular target: T2, Neuromedin-U receptor 2 (Homo sapiens, UniProt Q9GZQ4); experiment: Antagonist activity at human NMUR2 stably expressed in CHO cells by Fluo-4 AM dye based calcium mobilization assay; format: functional, cell-based; conditions: filed as antagonist, dose 30-300 nM
# T2 sequence (Q9GZQ4 whole entry): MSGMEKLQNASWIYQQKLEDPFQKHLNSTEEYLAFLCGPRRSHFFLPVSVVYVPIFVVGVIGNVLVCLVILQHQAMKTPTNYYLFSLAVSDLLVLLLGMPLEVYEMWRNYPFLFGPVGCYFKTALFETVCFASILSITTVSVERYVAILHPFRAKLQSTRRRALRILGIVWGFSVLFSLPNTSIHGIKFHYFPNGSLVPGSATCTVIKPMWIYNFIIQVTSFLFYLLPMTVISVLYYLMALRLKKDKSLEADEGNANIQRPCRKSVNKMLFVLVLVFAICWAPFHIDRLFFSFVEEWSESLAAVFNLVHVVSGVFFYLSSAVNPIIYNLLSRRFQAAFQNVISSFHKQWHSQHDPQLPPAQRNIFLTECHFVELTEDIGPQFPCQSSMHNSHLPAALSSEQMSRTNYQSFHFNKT
# [3] = molecular target: T1, Neuromedin-U receptor 1 (Homo sapiens); experiment: Antagonist activity at human NMUR1 stably expressed in CHO cells at 100 to 1000 nM by Fluo-4 AM dye based calcium mobilization assay; format: functional, cell-based; conditions: filed as antagonist, dose 100-1000 nM
# [4] = molecular target: T3, Neuromedin-U receptor 1 (Homo sapiens, UniProt Q9HB89); experiment: Antagonist potency at human NMUR1 stably expressed in CHO cells by Fluo-4 AM dye based calcium mobilization assay; format: functional, cell-based; conditions: read-out: pA2 (converted)
# T3 sequence (Q9HB89 whole entry): T1 sequence (whole entry)
# [5] = molecular target: T1, Neuromedin-U receptor 1 (Homo sapiens); experiment: Binding affinity to human NMUR1 assessed as equilibrium binding constant; conditions: filed as antagonist
# [6] = molecular target: T2, Neuromedin-U receptor 2; experiment: Antagonist potency at human NMUR2 stably expressed in CHO cells by Fluo-4 AM dye based calcium mobilization assay; format: functional, cell-based; conditions: read-out: pA2 (converted)
# [7] = molecular target: T2, Neuromedin-U receptor 2; experiment: Binding affinity to human NMUR2 assessed as equilibrium binding constant; conditions: filed as antagonist
# [8] = molecular target: T4, Neuromedin-U receptor 1 (Mus musculus) (UniProt O55040); experiment: Antagonist activity at mouse NMUR1 expressed in HEK293 cells by Fluo-4 AM dye based calcium mobilization assay; format: functional, cell-based
# T4 sequence (whole entry): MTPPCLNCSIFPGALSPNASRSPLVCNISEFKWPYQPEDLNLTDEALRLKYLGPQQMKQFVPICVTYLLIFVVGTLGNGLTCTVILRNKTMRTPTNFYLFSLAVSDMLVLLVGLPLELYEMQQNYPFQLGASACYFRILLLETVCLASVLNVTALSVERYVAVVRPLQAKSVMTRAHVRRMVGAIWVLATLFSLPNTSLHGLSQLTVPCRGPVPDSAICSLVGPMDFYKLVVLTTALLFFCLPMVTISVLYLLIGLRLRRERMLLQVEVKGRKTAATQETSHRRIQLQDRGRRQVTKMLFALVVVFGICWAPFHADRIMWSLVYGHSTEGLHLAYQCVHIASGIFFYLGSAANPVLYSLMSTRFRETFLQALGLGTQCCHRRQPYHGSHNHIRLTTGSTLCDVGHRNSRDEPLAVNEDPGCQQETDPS
# [9] = molecular target: Neuromedin-U receptor 2 (Mus musculus) (UniProt Q8BZ39); experiment: Antagonist activity at mouse NMUR2 expressed in HEK293 cells by Fluo-4 AM dye based calcium mobilization assay; format: functional, cell-based
# Neuromedin-U receptor 2 (Mus musculus), sequence (Q8BZ39 whole entry): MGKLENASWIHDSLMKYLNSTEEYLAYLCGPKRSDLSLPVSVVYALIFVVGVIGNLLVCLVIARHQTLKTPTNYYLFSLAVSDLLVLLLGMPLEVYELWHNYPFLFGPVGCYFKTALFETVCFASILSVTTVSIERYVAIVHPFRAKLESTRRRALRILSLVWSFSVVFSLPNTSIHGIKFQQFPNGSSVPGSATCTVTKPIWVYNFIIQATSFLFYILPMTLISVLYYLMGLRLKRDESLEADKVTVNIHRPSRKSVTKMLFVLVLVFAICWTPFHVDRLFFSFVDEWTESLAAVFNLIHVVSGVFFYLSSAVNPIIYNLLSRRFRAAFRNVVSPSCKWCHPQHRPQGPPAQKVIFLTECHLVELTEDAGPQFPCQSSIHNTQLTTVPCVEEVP
# [10] = Drug degradation in human serum assessed as half life by RP-HPLC analysis; format: ADME, cell-free
# [11] = species: Homo sapiens; experiment: Selectivity ratio of human NMUR2 to human NMUR1
# [12] = Stability in human plasma assessed drug recovery measured at 120 mins by RP-HPLC analysis; format: ADME, cell-free; conditions: read-out: Drug recovery
# [13] = Retention time in human serum measured at 40 min by RP-HPLC analysis; format: ADME, cell-free
# [14] = Drug degradation in rat serum by RP-HPLC analysis; format: ADME, cell-free
# [15] = Drug metabolism in rat serum assessed as (2S)-5-guanidino-2-[[(2S)-1-[(2S)-5-guanidino-2-[[(2S)-2-[[(2S)-3-(1H-indol-3-yl)-2-[methyl-[2-(2-thienyl)acetyl]amino]propanoyl]amino]-2-methyl-3-phenyl-propanoyl]amino]pentanoyl]pyrrolidine-2-carbonyl]amino]pentanoic acid formation by RP-HPLC analysis; format: ADME, cell-free
# [16] = Drug degradation in human serum assessed as drug recovery incubated for 15 mins in presence of argatroban by RP-HPLC analysis; format: ADME, cell-free; conditions: with argatroban, read-out: Drug recovery
# [17] = Drug degradation in human serum assessed as drug recovery incubated for 15 mins in presence of aprotinin by RP-HPLC analysis; format: ADME, cell-free; conditions: 0.25 h
smiles,measurement,setting,value
CN(C(=O)Cc1cccs1)[C@@H](Cc1c[nH]c2ccccc12)C(=O)N[C@@H](Cc1ccc(F)cc1)C(=O)N[C@@H](CCCNC(=N)N)C(=O)N1CCC[C@H]1C(=O)N[C@@H](CCCNC(=N)N)C(N)=O ({Acetyl(2-thienyl)}-[NMeW][Phe(4-F)]RPR-NH2),Activity,[1]; filed as antagonist,Active
same,Activity,[2],Active
same,Activity,[3],Active
same,Kb,[4],6.46 nM
same,Kb,[5],6.4 nM
same,Kb,[6],41.7 nM
same,Kb,[7],41 nM
same,Activity,[8],inactive
same,Activity,[9],inactive
same,half-life,[10],1.9 min
CN(C(=O)Cc1cccs1)[C@@H](Cc1c[nH]c2ccccc12)C(=O)N[C@@H](Cc1ccccc1)C(=O)N[C@@H](CCCNC(=N)N)C(=O)N1CCC[C@H]1C(=O)N[C@@H](CCCCN)C(=O)N[C@@H](CC(N)=O)C(N)=O ({Acetyl(2-thienyl)}-[NMeW]FRPKN-NH2),Activity,[1],inactive
CN(C(=O)Cc1cccs1)[C@@H](Cc1c[nH]c2ccccc12)C(=O)N[C@@H](Cc1ccccc1)C(=O)N[C@@H](CCCNC(=N)N)C(=O)N1CCC[C@H]1C(=O)N[C@@H](CCCNC(=N)N)C(=O)N[C@@H](CCC(N)=O)C(N)=O ({Acetyl(2-thienyl)}-[NMeW]FRPRQ-NH2),Activity,[1]; filed as antagonist,Active
CC(C)C[C@H](NC(=O)[C@H](Cc1c[nH]c2ccccc12)N(C)C(=O)Cc1cccs1)C(=O)N[C@@H](CCCNC(=N)N)C(=O)N1CCC[C@H]1C(=O)N[C@@H](CCCNC(=N)N)C(=O)N[C@@H](CC(N)=O)C(N)=O ({Acetyl(2-thienyl)}-[NMeW]LRPRN-NH2),Activity,[1]; filed as antagonist,Active
CN(C(=O)Cc1cccs1)[C@@H](Cc1c[nH]c2ccccc12)C(=O)N[C@@](C)(Cc1ccccc1)C(=O)N[C@@H](CCCNC(=N)N)C(=O)N1CCC[C@H]1C(=O)N[C@@H](CCCNC(=N)N)C(N)=O ({Acetyl(2-thienyl)}-[NMeW][αMeF]RPR-NH2),Activity,[1]; filed as antagonist,Dose-Dependent Effect
same,Activity,[2],Dose-Dependent Effect
same,Selectivity ratio,[11],2.3
same,Kb,[4],44.7 nM
same,Kb,[5],45 nM
same,Kb,[6],417 nM
same,Kb,[7],421 nM
same,Activity,[8],inactive
same,Activity,[9],inactive
same,remaining at 2 h,[12],96.7%
same,Retention_time,[13],48.27 min
same,Stability,[14],Unstable
same,Drug metabolism,[15],Metabolite_Detected
same,half-life,[10],5 min
same,remaining at 0.25 h,[16],97%
same,Stability,[17],Stable
CN(C(=O)Cc1cccs1)[C@@H](Cc1c[nH]c2ccccc12)C(=O)N1Cc2ccccc2C[C@H]1C(=O)N[C@@H](CCCNC(=N)N)C(=O)N1CCC[C@H]1C(=O)N[C@@H](CCCNC(=N)N)C(N)=O ({Acetyl(2-thienyl)}-[NMeW][Tic]RPR-NH2),Selectivity ratio,[11],2
CN(C(=O)Cc1cccs1)[C@@H](Cc1c[nH]c2ccccc12)C(=O)N[C@@H](Cc1ccccc1)C(=O)N[C@@H](CCCNC(=N)N)C(=O)N1CCC[C@H]1C(=O)N[C@@H](CCCNC(=N)N)C(=O)N[C@@H](CC(N)=O)C(N)=O ({Acetyl(2-thienyl)}-[NMeW]FRPRN-NH2),Activity,[1]; filed as antagonist,Active
CN(C(=O)Cc1cccs1)[C@@H](Cc1c[nH]c2ccccc12)C(=O)N[C@@H](Cc1ccccc1)C(=O)N[C@@H](CCCNC(=N)N)C(=O)N1CCC[C@H]1C(=O)N[C@@H](CCCNC(=N)N)C(N)=O ({Acetyl(2-thienyl)}-[NMeW]FRPR-NH2),Activity,[1]; filed as antagonist,Active
same,Selectivity ratio,[11],2.1
CN(C(=O)Cc1cccs1)[C@@H](Cc1c[nH]c2ccccc12)C(=O)N[C@@H](Cc1ccccc1)C(=O)N[C@@H](CCCNC(=N)N)C(=O)N1CCC[C@H]1C(=O)N[C@@H](CCCCNC(=N)N)C(N)=O ({Acetyl(2-thienyl)}-[NMeW]FRP[hArg]-NH2),Activity,[1]; filed as antagonist,Active
same,Activity,[2],Active
CN(C(=O)Cc1cccs1)[C@@H](Cc1c[nH]c2ccccc12)C(=O)N[C@@H](Cc1c[nH]c2ccccc12)C(=O)N[C@@H](CCCNC(=N)N)C(=O)N1CCC[C@H]1C(=O)N[C@@H](CCCNC(=N)N)C(=O)N[C@@H](CC(N)=O)C(N)=O ({Acetyl(2-thienyl)}-[NMeW]WRPRN-NH2),Activity,[1]; filed as antagonist,Active
CN(C(=O)Cc1cccs1)[C@@H](CC(N)=O)C(=O)N[C@@H](Cc1ccccc1)C(=O)N[C@@H](CCCNC(=N)N)C(=O)N1CCC[C@H]1C(=O)N[C@@H](CCCNC(=N)N)C(=O)N[C@@H](CC(N)=O)C(N)=O ({Acetyl(2-thienyl)}-[NMeN]FRPRN-NH2),Activity,[1]; filed as antagonist,Active
CN(C(=O)Cc1cccs1)[C@@H](Cc1c[nH]c2ccccc12)C(=O)N[C@@H](Cc1ccccc1)C(=O)N[C@@H](CCCNC(=N)N)C(=O)N1CCC[C@H]1C(=O)N[C@@H](CCCNC(=N)N)C(=O)N[C@@H](CC(=O)O)C(N)=O ({Acetyl(2-thienyl)}-[NMeW]FRPRD-NH2),Activity,[1]; filed as antagonist,Active
CN(C(=O)Cc1cccs1)[C@@H](Cc1c[nH]c2ccccc12)C(=O)N[C@@H](Cc1ccccc1)C(=O)N[C@@H](CCCNC(=N)N)C(=O)N1CCCC[C@H]1C(=O)N[C@@H](CCCNC(=N)N)C(=O)N[C@@H](CC(N)=O)C(N)=O ({Acetyl(2-thienyl)}-[NMeW]FR[Pip]RN-NH2),Activity,[1]; filed as antagonist,Active
CN(C(=O)Cc1cccs1)[C@@H](Cc1c[nH]c2ccccc12)C(=O)N[C@@H](Cc1ccccc1)C(=O)N[C@@H](CCCNC(=N)N)C(=O)N1CCC[C@H]1C(=O)N[C@@H](CCCNC(=N)N)C(=O)N[C@@H](CC(N)=O)C(=O)O ({Acetyl(2-thienyl)}-[NMeW]FRPRN-OH),Activity,[1]; filed as antagonist,Active
CN(C(=O)Cc1cccs1)[C@@H](Cc1ccccc1)C(=O)N[C@@H](Cc1ccccc1)C(=O)N[C@@H](CCCNC(=N)N)C(=O)N1CCC[C@H]1C(=O)N[C@@H](CCCNC(=N)N)C(=O)N[C@@H](CC(N)=O)C(N)=O ({Acetyl(2-thienyl)}-[NMeF]FRPRN-NH2),Activity,[1]; filed as antagonist,Active
CN(C(=O)Cc1cccs1)[C@@H](Cc1c[nH]c2ccccc12)C(=O)N[C@@H](Cc1ccccc1)C(=O)N[C@@H](CCCNC(=N)N)C(=O)N1CCC[C@H]1C(=O)N[C@@H](CCCNC(=N)N)C(=O)O ({Acetyl(2-thienyl)}-[NMeW]FRPR-OH),Activity,[1]; filed as antagonist,Active
same,Activity,[2],Active
CN(C(=O)Cc1cccs1)[C@@H](Cc1ccc(O)cc1)C(=O)N[C@@H](Cc1ccccc1)C(=O)N[C@@H](CCCNC(=N)N)C(=O)N1CCC[C@H]1C(=O)N[C@@H](CCCNC(=N)N)C(=O)N[C@@H](CC(N)=O)C(N)=O ({Acetyl(2-thienyl)}-[NMeY]FRPRN-NH2),Activity,[1]; filed as antagonist,Active
CN(C(=O)Cc1cccs1)[C@@H](Cc1c[nH]c2ccccc12)C(=O)N[C@@H](Cc1ccccc1)C(=O)N[C@@H](CCCNC(=N)N)C(=O)N1CCC[C@H]1C(N)=O ({Acetyl(2-thienyl)}-[NMeW]FRP-NH2),Activity,[1]; filed as antagonist,Active
same,Activity,[2],Active
CC(C)C[C@@H](C(=O)N[C@@H](Cc1ccccc1)C(=O)N[C@@H](CCCNC(=N)N)C(=O)N1CCC[C@H]1C(=O)N[C@@H](CCCNC(=N)N)C(=O)N[C@@H](CC(N)=O)C(N)=O)N(C)C(=O)Cc1cccs1 ({Acetyl(2-thienyl)}-[NMeL]FRPRN-NH2),Activity,[1]; filed as antagonist,Active
